# Reference: article PMC12051620, “Molecular basis underlying the specificity of an antagonist AA92593 for mammalian melanopsins” (The Journal of Biological Chemistry, 2025)
# Key:
# [1] = test system: lanceolatum melanopsin A269^6.52S mutant; experiment: GsX GloSensor assay with Gsα/q11; type: cell-based, Branchiostoma lanceolatum; settings: 16.7 μM AA92593, COS-1 cells
# Description: (§1) We assessed the effect of the antagonist on the mutants using the GsX GloSensor assay with Gsα/q11. […] Furthermore, the double substitution F189^ECL2W/I207^5.42F further increased the susceptibility of the lanceolatum melanopsin to the antagonist by ∼88% (Fig. 7, G, H, and I). The AA92593-induced inhibition of the double mutant F189^ECL2W/I207^5.42F was as efficient as that of human melanopsin (Fig. 7I). […] Taken together, the introduction of Trp-189^ECL2 and Phe-207^5.42 rendered lanceolatum melanopsin highly sensitive to the antagonist (Fig. 7, G, H, and I).
# (§2) For GloSensor assay, opsins, GloSensor assay sensor (coded by pGlo-22F), and NanoBiT-tagged G proteins were transiently expressed in COS-1 cells (kindly provided from Dr David Farrens, Oregon Health and Science University) using PEI as described previously ([24], [52]). For the GsX GloSensor assay ([12], [13]), each well of a 96-well assay plate (Corning) was transfected with 50 ng opsin plasmid, 16.7 ng G protein plasmid, 50 ng pGlo-22F plasmid (Promega), and 500 ng PEI in 25 μl Opti-mem and 75 μl Dulbecco's modified Eagle's medium (D-MEM). For NanoBiT G protein dissociation assay, each well of a 96-well assay plate was transfected with 50 ng opsin plasmid, 5 ng Lg-BiT inserted Gqα (Gqα-LgBiT) plasmid, 25 ng Gβ1 plasmid, 25 ng Sm-BiT fused Gγ2 plasmid, 5 ng RIC8A plasmid, and 500 ng PEI in 25 μl Opti-mem and 75 μl D-MEM. For GFP-fluorescence microscopy, a 35-mm cell culture dish (IWAKI) was transfected with 2 μg melanopsin-GFP plasmid and 8 μg PEI in 400 μl Opti-mem and 1.2 ml D-MEM. […]
# (§3) The transfected COS-1 cells were incubated at 37 °C, 5% CO2 for 2 days, and the medium was aspirated and exchanged with 50 μl of HBSS (145 mM NaCl, 10 mM D-glucose, 5 mM KCl, 1 mM MgCl2, 1.7 mM CaCl2, 1.5 mM NaHCO3, 10 mM Hepes, pH 7.4), containing 33.3, 20, 10, 2, 0.2, 0.02, 0.002, or 0 μM AA92593, 0.5% dimetyl sulfoxide (DMSO), and 4% (vol/vol) GloSensor cAMP reagent stock solution. […] Then, the cells were incubated at room temperature for 1 h, and luminescence changes were monitored. After incubation of the cells with AA92593, luminescence measurement was interrupted, the plate was ejected, and the cells were added with 50 μl of HBSS containing 0.2 μM 9-cis-retinal. […] Luminescence was measured using GM-2000 or GM-3510 microplate reader (Promega). Luminescence level of each well was measured every 30 s with integration time of 0.6 to 0.9 s. To illuminate opsins, luminescence measurement was interrupted, the plate was ejected, and the plate was illuminated by white light with CN-160 LED video light (light intensity, ∼9 mW/cm^2) (NEEWER). […] After illumination, luminescence measurement was resumed. The measured luminescence levels were normalized to the level at the starting point (time = 0 min). […]
# [2] = test system: lanceolatum melanopsin F189^ECL2W mutant; experiment: GsX GloSensor assay with Gsα/q11; type: cell-based, Branchiostoma lanceolatum; settings: 16.7 μM AA92593, COS-1 cells
# Description: as §1, §2, §3
# [3] = test system: lanceolatum melanopsin I207^5.42F mutant; experiment: GsX GloSensor assay with Gsα/q11; type: cell-based, Branchiostoma lanceolatum; settings: 16.7 μM AA92593, COS-1 cells
# Description: as §1, §2, §3
# [4] = test system: lanceolatum melanopsin I207^5.42L mutant; experiment: GsX GloSensor assay with Gsα/q11; type: cell-based, Branchiostoma lanceolatum; settings: 16.7 μM AA92593, COS-1 cells
# Description: as §1, §2, §3
# human melanopsin = target: T1, human melanopsin (Homo sapiens, UniProt Q9UHM6); parameters: the C-terminal amino acid residues (94, 140, 200, 214, 296, and 308 residues); expressed in transfected cells; method as in PMID 23974117; settings: CHO cells; calcium imaging; 9-cis-retinal incubation several minutes; read-out: IC50 reported in the previous study; cited from earlier work
# T1 sequence (Q9UHM6 1-384 limits assumed): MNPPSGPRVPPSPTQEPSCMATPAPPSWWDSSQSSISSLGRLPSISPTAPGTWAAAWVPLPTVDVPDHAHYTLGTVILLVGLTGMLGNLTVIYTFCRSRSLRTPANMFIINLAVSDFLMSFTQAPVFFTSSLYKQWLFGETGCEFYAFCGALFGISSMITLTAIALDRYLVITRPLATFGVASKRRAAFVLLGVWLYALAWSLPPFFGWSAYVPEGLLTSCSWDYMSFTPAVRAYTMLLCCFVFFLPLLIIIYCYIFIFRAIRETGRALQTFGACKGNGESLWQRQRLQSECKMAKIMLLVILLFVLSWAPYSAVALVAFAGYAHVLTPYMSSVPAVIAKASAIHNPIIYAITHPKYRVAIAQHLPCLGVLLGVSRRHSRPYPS
structure (smiles),measurement,setting,value
COc1ccc(S(=O)(=O)N2CCCCC2)cc1C [AA92593],change in sensitivity to AA92593 vs WT,[1],little changes
same,increase in sensitivity to AA92593 vs WT,[2],~21%
same,increase in sensitivity to AA92593 vs WT,[3],~42%
same,change in sensitivity to AA92593 vs WT,[4],little changes
same,IC50,human melanopsin,665 nM
